According to the supplement of paper PMC10627819:

Legend:
Experiment in all cases: fitness (endpoint OD595 vs no drug) (fraction); higher = more growth
B. subtilis 168 = system: B. subtilis 168
In short: (§1)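 Bacterial fitness was scored as optical density at the stationary-phase transition relative to the robust mean of no-drug control wells. Scores are capped at 1. The growth data were OD595 readings every 30 min for 14 h at 37 °C, background-subtracted against the first reading, from 384-well plates inoculated at OD595 0.01 in TSB, LB Lennox or CY.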

S. aureus DSM 20231 = system: S. aureus DSM 20231
In short: as §1

S. pneumoniae D39V = system: S. pneumoniae D39V
In short: as §1

[1] = first compound 0.375 µg/mL, partner 0.2 µg/mL
[2] = first compound 0.375 µg/mL, partner 0.4 µg/mL
[3] = first compound 0.375 µg/mL, partner 0.8 µg/mL
[4] = first compound 0.75 µg/mL, partner 0.2 µg/mL
[5] = first compound 0.75 µg/mL, partner 0.4 µg/mL
[6] = first compound 0.75 µg/mL, partner 0.8 µg/mL
[7] = first compound 1.5 µg/mL, partner 0.2 µg/mL
[8] = first compound 1.5 µg/mL, partner 0.4 µg/mL
[9] = first compound 1.5 µg/mL, partner 0.8 µg/mL
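Also: OD595 on entry to stationary phase over no-drug wells; at most 1.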

`CN(C)[C@@H]1C(O)=C(C(N)=O)C(=O)[C@@]2(O)C(O)=C3C(=O)c4c(O)ccc(Cl)c4[C@@](C)(O)[C@H]3C[C@@H]12` [Chlortetracycline] + CCC[C@@H]1C[C@@H](C(=O)N[C@@H]([C@H]2O[C@H](SC)[C@H](O)[C@@H](O)[C@H]2O)[C@@H](C)O)N(C)C1 [Lincomycin] showed a fitness (B. subtilis 168; first compound 0.0475 µg/mL, partner 0.1 µg/mL) of 0.87, a fitness (B. subtilis 168; first compound 0.0475 µg/mL, partner 0.2 µg/mL) of 0.862 and a fitness (B. subtilis 168; first compound 0.0475 µg/mL, partner 0.4 µg/mL) of 0.85. For the same compound, the fitness (B. subtilis 168; first compound 0.0475 µg/mL, partner 0.8 µg/mL, one replicate) was 0.845, the fitness (B. subtilis 168; first compound 0.0475 µg/mL, partner 1.6 µg/mL, one replicate) was 0.761 and the fitness (B. subtilis 168; first compound 0.095 µg/mL, partner 0.1 µg/mL) was 0.805. For the same compound, the fitness (B. subtilis 168; first compound 0.095 µg/mL, partner 0.2 µg/mL) was 0.817, the fitness (B. subtilis 168; first compound 0.095 µg/mL, partner 0.4 µg/mL) was 0.803 and the fitness (B. subtilis 168; first compound 0.095 µg/mL, partner 0.8 µg/mL, one replicate) was 0.692. It also gave a fitness (B. subtilis 168; first compound 0.095 µg/mL, partner 1.6 µg/mL, one replicate) of 0.5, a fitness (B. subtilis 168; first compound 0.19 µg/mL, partner 0.1 µg/mL) of 0.648 and a fitness (B. subtilis 168; first compound 0.19 µg/mL, partner 0.2 µg/mL) of 0.489. It also gave a fitness (B. subtilis 168; first compound 0.19 µg/mL, partner 0.4 µg/mL) of 0.406, a fitness (B. subtilis 168; first compound 0.19 µg/mL, partner 0.8 µg/mL, one replicate) of 0.0991 and a fitness (B. subtilis 168; first compound 0.19 µg/mL, partner 1.6 µg/mL, one replicate) of 0.0613. The fitness (S. aureus DSM 20231; first compound 0.006 µg/mL, partner 0.1 µg/mL, one replicate) was 0.712, the fitness (S. aureus DSM 20231; first compound 0.006 µg/mL, partner 0.2 µg/mL, one replicate) was 0.483 and the fitness (S. aureus DSM 20231; first compound 0.006 µg/mL, partner 0.4 µg/mL, one replicate) was 0.203. For the same compound, the fitness (S. aureus DSM 20231; first compound 0.012 µg/mL, partner 0.1 µg/mL) was 0.472, the fitness (S. aureus DSM 20231; first compound 0.012 µg/mL, partner 0.2 µg/mL) was 0.259 and the fitness (S. aureus DSM 20231; first compound 0.012 µg/mL, partner 0.4 µg/mL) was 0.0974. For the same compound, the fitness (S. aureus DSM 20231; first compound 0.024 µg/mL, partner 0.1 µg/mL) was 0.233, the fitness (S. aureus DSM 20231; first compound 0.024 µg/mL, partner 0.2 µg/mL) was 0.104 and the fitness (S. aureus DSM 20231; first compound 0.024 µg/mL, partner 0.4 µg/mL) was 0.0491. It also gave a fitness (S. aureus DSM 20231; first compound 0.048 µg/mL, partner 0.1 µg/mL) of 0.0441, a fitness (S. aureus DSM 20231; first compound 0.048 µg/mL, partner 0.2 µg/mL) of 0.0385 and a fitness (S. aureus DSM 20231; first compound 0.048 µg/mL, partner 0.4 µg/mL) of 0.0333. It also gave a fitness (S. pneumoniae D39V; first compound 0.012 µg/mL, partner 0.215 µg/mL) of 0.802, a fitness (S. pneumoniae D39V; first compound 0.012 µg/mL, partner 0.43 µg/mL) of 0.716 and a fitness (S. pneumoniae D39V; first compound 0.012 µg/mL, partner 0.86 µg/mL) of 0.268. The fitness (S. pneumoniae D39V; first compound 0.024 µg/mL, partner 0.215 µg/mL) was 0.769, the fitness (S. pneumoniae D39V; first compound 0.024 µg/mL, partner 0.43 µg/mL) was 0.666 and the fitness (S. pneumoniae D39V; first compound 0.024 µg/mL, partner 0.86 µg/mL) was 0.246. The fitness (S. pneumoniae D39V; first compound 0.048 µg/mL, partner 0.215 µg/mL) was 0.636, the fitness (S. pneumoniae D39V; first compound 0.048 µg/mL, partner 0.43 µg/mL) was 0.426 and the fitness (S. pneumoniae D39V; first compound 0.048 µg/mL, partner 0.86 µg/mL) was 0.222. The fitness (S. pneumoniae D39V; [1]) was 0.0295, the fitness (S. pneumoniae D39V; [2]) was 0.0454 and the fitness (S. pneumoniae D39V; [3]) was 0.0386. It also gave a fitness (S. pneumoniae D39V; [4]) of 0.0393, a fitness (S. pneumoniae D39V; [5]) of 0.0417 and a fitness (S. pneumoniae D39V; [6]) of 0.0458. For the same compound, the fitness (S. pneumoniae D39V; [7]) was 0.0273, the fitness (S. pneumoniae D39V; [8]) was 0.035 and the fitness (S. pneumoniae D39V; [9]) was 0.0234.

With `CN(C)[C@@H]1C(O)=C(C(N)=O)C(=O)[C@@]2(O)C(O)=C3C(=O)c4c(O)ccc(Cl)c4[C@@](C)(O)[C@H]3C[C@@H]12` [Chlortetracycline] + CC(=O)NC[C@H]1CN(c2ccc(N3CCOCC3)c(F)c2)C(=O)O1 [Linezolid] the fitness (B. subtilis 168; first compound 0.0475 µg/mL, partner 0.0625 µg/mL, one replicate) was 0.751, the fitness (B. subtilis 168; first compound 0.0475 µg/mL, partner 0.25 µg/mL) was 0.0413 and the fitness (B. subtilis 168; first compound 0.0475 µg/mL, partner 0.5 µg/mL) was 0.0371. The fitness (B. subtilis 168; first compound 0.095 µg/mL, partner 0.0625 µg/mL, one replicate) was 0.53, the fitness (B. subtilis 168; first compound 0.095 µg/mL, partner 0.25 µg/mL) was 0.0555 and the fitness (B. subtilis 168; first compound 0.095 µg/mL, partner 0.5 µg/mL) was 0.0371. The fitness (B. subtilis 168; first compound 0.19 µg/mL, partner 0.0625 µg/mL, one replicate) was 0.213, the fitness (B. subtilis 168; first compound 0.19 µg/mL, partner 0.125 µg/mL) was 0.0875 and the fitness (B. subtilis 168; first compound 0.19 µg/mL, partner 0.25 µg/mL) was 0.0467. The fitness (B. subtilis 168; first compound 0.19 µg/mL, partner 0.5 µg/mL) was 0.0344, the fitness (S. aureus DSM 20231; first compound 0.006 µg/mL, partner 0.125 µg/mL, one replicate) was 0.649 and the fitness (S. aureus DSM 20231; first compound 0.006 µg/mL, partner 0.25 µg/mL, one replicate) was 0.59. The fitness (S. aureus DSM 20231; first compound 0.006 µg/mL, partner 0.5 µg/mL, one replicate) was 0.213, the fitness (S. aureus DSM 20231; first compound 0.012 µg/mL, partner 0.125 µg/mL) was 0.516 and the fitness (S. aureus DSM 20231; first compound 0.012 µg/mL, partner 0.25 µg/mL) was 0.423. It also gave a fitness (S. aureus DSM 20231; first compound 0.012 µg/mL, partner 0.5 µg/mL) of 0.135, a fitness (S. aureus DSM 20231; first compound 0.012 µg/mL, partner 1 µg/mL, one replicate) of 0.0536 and a fitness (S. aureus DSM 20231; first compound 0.024 µg/mL, partner 0.25 µg/mL) of 0.179. The fitness (S. aureus DSM 20231; first compound 0.024 µg/mL, partner 0.5 µg/mL) was 0.0849, the fitness (S. aureus DSM 20231; first compound 0.024 µg/mL, partner 1 µg/mL, one replicate) was 0.0397 and the fitness (S. aureus DSM 20231; first compound 0.048 µg/mL, partner 0.125 µg/mL) was 0.141. It also gave a fitness (S. aureus DSM 20231; first compound 0.048 µg/mL, partner 0.25 µg/mL) of 0.0729, a fitness (S. aureus DSM 20231; first compound 0.048 µg/mL, partner 0.5 µg/mL) of 0.0288 and a fitness (S. aureus DSM 20231; first compound 0.048 µg/mL, partner 1 µg/mL, one replicate) of 0.0171. It also gave a fitness (S. pneumoniae D39V; first compound 0.012 µg/mL, partner 0.105 µg/mL) of 0.785, a fitness (S. pneumoniae D39V; first compound 0.012 µg/mL, partner 0.21 µg/mL) of 0.685 and a fitness (S. pneumoniae D39V; first compound 0.012 µg/mL, partner 0.42 µg/mL) of 0.422. It also gave a fitness (S. pneumoniae D39V; first compound 0.024 µg/mL, partner 0.105 µg/mL) of 0.739, a fitness (S. pneumoniae D39V; first compound 0.024 µg/mL, partner 0.21 µg/mL) of 0.585 and a fitness (S. pneumoniae D39V; first compound 0.024 µg/mL, partner 0.42 µg/mL) of 0.251. The fitness (S. pneumoniae D39V; first compound 0.048 µg/mL, partner 0.105 µg/mL) was 0.609, the fitness (S. pneumoniae D39V; first compound 0.048 µg/mL, partner 0.21 µg/mL) was 0.387 and the fitness (S. pneumoniae D39V; first compound 0.048 µg/mL, partner 0.42 µg/mL) was 0.211. The fitness (S. pneumoniae D39V; [1]) was 0.0262, the fitness (S. pneumoniae D39V; [2]) was 0.028 and the fitness (S. pneumoniae D39V; [3]) was 0.0276. The fitness (S. pneumoniae D39V; [4]) was 0.025, the fitness (S. pneumoniae D39V; [5]) was 0.04 and the fitness (S. pneumoniae D39V; [6]) was 0.0503. It also gave a fitness (S. pneumoniae D39V; [7]) of 0.0494, a fitness (S. pneumoniae D39V; [8]) of 0.0334 and a fitness (S. pneumoniae D39V; [9]) of 0.044.
